Assay results from ChEMBL document CHEMBL1142186, “Multistep resistance selection and postantibiotic-effect studies of the antipneumococcal activity of LBM415 compared to other agents” (2007).
In brackets after ≈: the same amount, converted by molar mass.

Tests used:
Type in all cases: functional
Streptococcus pneumoniae [1] = test: Antibacterial activity against moxifloxacin resistance selected Streptococcus pneumoniae 24 with GyrA S81Y, GyrB P413S and ParC S79F mutation after 10 antibiotic-free subcultures by macrodilution method
Streptococcus pneumoniae [2] = test: Antibacterial activity against azithromycin resistance selected Streptococcus pneumoniae 2527 after 10 antibiotic-free subcultures by macrodilution method
Streptococcus pneumoniae [3] = test: Antibacterial activity against gatifloxacin resistance selected Streptococcus pneumoniae 37 with GyrA S81Y, GyrB E474K and ParC S79Y mutation after 10 antibiotic-free subcultures by macrodilution method
Streptococcus pneumoniae [4] = test: Antibacterial activity against Streptococcus pneumoniae assessed as period of suppression of bacterial growth
Streptococcus pneumoniae [5] = test: Antibacterial activity against levofloxacin resistance selected Streptococcus pneumoniae 3009 with GyrA S81Y and ParC S79Y mutation after 10 antibiotic-free subcultures by macrodilution method
Streptococcus pneumoniae [6] = test: Antibacterial activity against gatifloxacin resistance selected Streptococcus pneumoniae 3009 after 10 antibiotic-free subcultures by macrodilution method
Streptococcus pneumoniae [7] = test: Antibacterial activity against moxifloxacin resistance selected Streptococcus pneumoniae 3009 with GyrA S81F and ParC D83N mutation after 10 antibiotic-free subcultures by macrodilution method
Streptococcus pneumoniae [8] = test: Antibacterial activity against clarithromycin resistance selected Streptococcus pneumoniae 3009 after 10 antibiotic-free subcultures by macrodilution method
Streptococcus pneumoniae [9] = test: Antibacterial activity against moxifloxacin resistance selected Streptococcus pneumoniae 1076 with ParC S79Y mutation after 10 antibiotic-free subcultures by macrodilution method
Streptococcus pneumoniae [10] = test: Antibacterial activity against gatifloxacin resistance selected Streptococcus pneumoniae 1076 with ParC S79Y mutation after 10 antibiotic-free subcultures by macrodilution method
Streptococcus pneumoniae [11] = test: Antibacterial activity against azithromycin resistance selected Streptococcus pneumoniae 1077 with 23S rRNA A2058G mutation after 10 antibiotic-free subcultures by macrodilution method
Streptococcus pneumoniae [12] = test: Antibacterial activity against moxifloxacin resistance selected Streptococcus pneumoniae 3665 with GyrA S81Y mutation after 10 antibiotic-free subcultures by macrodilution method
Streptococcus pneumoniae [13] = test: Antibacterial activity against clarithromycin resistance selected Streptococcus pneumoniae 3665 after 10 antibiotic-free subcultures by macrodilution method
Streptococcus pneumoniae [14] = test: Antibacterial activity against moxifloxacin resistance selected Streptococcus pneumoniae 3676 with GyrA E85G, GyrB S478I and ParC S79Y mutation after 10 antibiotic-free subcultures by macrodilution method
Streptococcus pneumoniae [15] = test: Antibacterial activity against clarithromycin resistance selected Streptococcus pneumoniae 3676 after 10 antibiotic-free subcultures by macrodilution method
Streptococcus pneumoniae [16] = test: Antibacterial activity against moxifloxacin resistance selected Streptococcus pneumoniae 3243 after 10 antibiotic-free subcultures by macrodilution method
Streptococcus pneumoniae [17] = test: Antibacterial activity against azithromycin resistance selected Streptococcus pneumoniae 3243 with L22 insertion 93SFRPRA94 mutation after 10 antibiotic-free subcultures by macrodilution method
Streptococcus pneumoniae [18] = test: Antibacterial activity against clarithromycin resistance selected Streptococcus pneumoniae 3243 with 23S rRNA A2059T mutation after 10 antibiotic-free subcultures by macrodilution method
Streptococcus pneumoniae [19] = test: Antibacterial activity against moxifloxacin resistance selected Streptococcus pneumoniae 19 with GyrA S81F mutation after 10 antibiotic-free subcultures by macrodilution method
Streptococcus pneumoniae [20] = test: Antibacterial activity against levofloxacin resistance selected Streptococcus pneumoniae 19 with GyrA S81Y and ParC D83Y mutation after 10 antibiotic-free subcultures by macrodilution method
Streptococcus pneumoniae [21] = test: Antibacterial activity against […] resistance selected Streptococcus pneumoniae 19 with after 14 passages by macrodilution method
Streptococcus pneumoniae [22] = test: Antibacterial activity against […] resistance selected Streptococcus pneumoniae 1076 with PDF D176N mutation after 39 passages by macrodilution method
Streptococcus pneumoniae [23] = test: Antibacterial activity against […] resistance selected Streptococcus pneumoniae 1077 with PDF D176N mutation after 24 passages by macrodilution method
Streptococcus pneumoniae [24] = test: Antibacterial activity against […] resistance selected Streptococcus pneumoniae 3665 with after 27 passages by macrodilution method
Streptococcus pneumoniae [25] = test: Antibacterial activity against […] resistance selected Streptococcus pneumoniae 3243 with PDF G69C, Q172H mutation after 20 passages by macrodilution method
Streptococcus pneumoniae [26] = test: Antibacterial activity against […] resistance selected Streptococcus pneumoniae 3676 with PDF R135C mutation after 20 passages by macrodilution method
Streptococcus pneumoniae [27] = test: Antibacterial activity against […] resistance selected Streptococcus pneumoniae 24 with PDF G139F mutation after 27 passages by macrodilution method
Streptococcus pneumoniae [28] = test: Antibacterial activity against […] resistance selected Streptococcus pneumoniae 2527 after 27 passages by macrodilution method
Streptococcus pneumoniae [29] = test: Antibacterial activity against […] resistance selected Streptococcus pneumoniae 37 with PDF G69R, P76R mutation after 50 passages by macrodilution method
Streptococcus pneumoniae [30] = test: Antibacterial activity against […] resistance selected Streptococcus pneumoniae 3413 after 14 passages by macrodilution method
Streptococcus pneumoniae [31] = test: Antibacterial activity against […] resistance selected Streptococcus pneumoniae 3009 with PDF G69V mutation after 10 antibiotic-free subcultures by macrodilution method
Streptococcus pneumoniae [32] = test: Antibacterial activity against […] resistance selected Streptococcus pneumoniae 1076 with PDF D176N mutation after 10 antibiotic-free subcultures by macrodilution method
Streptococcus pneumoniae [33] = test: Antibacterial activity against […] resistance selected Streptococcus pneumoniae 1077 with PDF D176N mutation after 10 antibiotic-free subcultures by macrodilution method
Streptococcus pneumoniae [34] = test: Antibacterial activity against […] resistance selected Streptococcus pneumoniae 3665 with after 10 antibiotic-free subcultures by macrodilution method
Streptococcus pneumoniae [35] = test: Antibacterial activity against […] resistance selected Streptococcus pneumoniae 3243 with PDF G69C, Q172H mutation after 10 antibiotic-free subcultures by macrodilution method
Streptococcus pneumoniae [36] = test: Antibacterial activity against […] resistance selected Streptococcus pneumoniae 3676 with PDF R135C mutation after 10 antibiotic-free subcultures by macrodilution method
Streptococcus pneumoniae [37] = test: Antibacterial activity against […] resistance selected Streptococcus pneumoniae 19 with after 10 antibiotic-free subcultures by macrodilution method
Streptococcus pneumoniae [38] = test: Antibacterial activity against […] resistance selected Streptococcus pneumoniae 24 with PDF G139F mutation after 10 antibiotic-free subcultures by macrodilution method
Streptococcus pneumoniae [39] = test: Antibacterial activity against […] resistance selected Streptococcus pneumoniae 2527 after 10 antibiotic-free subcultures by macrodilution method
Streptococcus pneumoniae [40] = test: Antibacterial activity against Streptococcus pneumoniae 3009 by macrodilution method
Streptococcus pneumoniae [41] = test: Antibacterial activity against Streptococcus pneumoniae 1076 by macrodilution method
Streptococcus pneumoniae [42] = test: Antibacterial activity against Streptococcus pneumoniae 1077 by macrodilution method
Streptococcus pneumoniae [43] = test: Antibacterial activity against Streptococcus pneumoniae 3665 by macrodilution method
Streptococcus pneumoniae [44] = test: Antibacterial activity against Streptococcus pneumoniae 3243 by macrodilution method
Streptococcus pneumoniae [45] = test: Antibacterial activity against Streptococcus pneumoniae 3676 by macrodilution method
Streptococcus pneumoniae [46] = test: Antibacterial activity against Streptococcus pneumoniae 19 by macrodilution method
Streptococcus pneumoniae [47] = test: Antibacterial activity against Streptococcus pneumoniae 24 by macrodilution method
Streptococcus pneumoniae [48] = test: Antibacterial activity against Streptococcus pneumoniae 2527 by macrodilution method
Streptococcus pneumoniae [49] = test: Antibacterial activity against Streptococcus pneumoniae 37 by macrodilution method
Streptococcus pneumoniae [50] = test: Antibacterial activity against Streptococcus pneumoniae 3413 by macrodilution method
Streptococcus pneumoniae [51] = test: Antibacterial activity against […] resistance selected Streptococcus pneumoniae 3009 with PDF G69V mutation after 14 passages by macrodilution method
Streptococcus pneumoniae [52] = test: Antibacterial activity against […] resistance selected Streptococcus pneumoniae 37 with PDF G69R, P76R mutation after 10 antibiotic-free subcultures by macrodilution method
Streptococcus pneumoniae [53] = test: Antibacterial activity against […] resistance selected Streptococcus pneumoniae 3413 after 10 antibiotic-free subcultures by macrodilution method

C[C@@H](O)[C@H]1C(=O)N2C(C(=O)O)=C(SCCNC=N)C[C@H]12 [IMIPENEM ANHYDROUS]
MIC (Streptococcus pneumoniae [1]): 0.5 µg/mL (≈ 1.67 µM) | MIC (Streptococcus pneumoniae [2]): 0.5 µg/mL (≈ 1.67 µM) | MIC (Streptococcus pneumoniae [3]): 0.5 µg/mL (≈ 1.67 µM) | Post Antibiotic Effe (Streptococcus pneumoniae [4]): 1.7 h | MIC (Streptococcus pneumoniae [5]): ≤ 0.004 µg/mL | MIC (Streptococcus pneumoniae [6]): 0.008 µg/mL (≈ 0.0267 µM) | MIC (Streptococcus pneumoniae [7]): 0.008 µg/mL (≈ 0.0267 µM) | MIC (Streptococcus pneumoniae [8]): ≤ 0.004 µg/mL | MIC (Streptococcus pneumoniae [9]): 0.008 µg/mL (≈ 0.0267 µM) | MIC (Streptococcus pneumoniae [10]): 0.008 µg/mL (≈ 0.0267 µM) | MIC (Streptococcus pneumoniae [11]): 0.008 µg/mL (≈ 0.0267 µM) | MIC (Streptococcus pneumoniae [12]): 0.03 µg/mL (≈ 0.1 µM) | MIC (Streptococcus pneumoniae [13]): 0.03 µg/mL (≈ 0.1 µM) | MIC (Streptococcus pneumoniae [14]): 0.03 µg/mL (≈ 0.1 µM) | MIC (Streptococcus pneumoniae [15]): 0.016 µg/mL (≈ 0.0534 µM) | MIC (Streptococcus pneumoniae [16]): 0.004 µg/mL (≈ 0.0134 µM) | MIC (Streptococcus pneumoniae [17]): 0.03 µg/mL (≈ 0.1 µM) | MIC (Streptococcus pneumoniae [18]): 0.03 µg/mL (≈ 0.1 µM) | MIC (Streptococcus pneumoniae [19]): 0.5 µg/mL (≈ 1.67 µM) | MIC (Streptococcus pneumoniae [20]): 0.5 µg/mL (≈ 1.67 µM)

C[C@H]1COc2c(N3CCN(C)CC3)c(F)cc3c(=O)c(C(=O)O)cn1c23.C[C@H]1COc2c(N3CCN(C)CC3)c(F)cc3c(=O)c(C(=O)O)cn1c23.O [LEVOFLOXACIN]
MIC (Streptococcus pneumoniae [3]): 64 µg/mL | Post Antibiotic Effe (Streptococcus pneumoniae [4]): 1.3 h

CCCC[C@H](CN(O)C=O)C(=O)N1CCC[C@H]1C(=O)Nc1ccc(F)c[n+]1[O-]
MIC (Streptococcus pneumoniae [21]): 4 µg/mL (≈ 10.1 µM) | MIC (Streptococcus pneumoniae [22]): 8 µg/mL (≈ 20.2 µM) | MIC (Streptococcus pneumoniae [23]): 8 µg/mL (≈ 20.2 µM) | MIC (Streptococcus pneumoniae [24]): 4 µg/mL (≈ 10.1 µM) | MIC (Streptococcus pneumoniae [25]): 4 µg/mL (≈ 10.1 µM) | MIC (Streptococcus pneumoniae [26]): 2 µg/mL (≈ 5.05 µM) | MIC (Streptococcus pneumoniae [27]): 4 µg/mL (≈ 10.1 µM) | MIC (Streptococcus pneumoniae [28]): 4 µg/mL (≈ 10.1 µM) | MIC (Streptococcus pneumoniae [29]): 16 µg/mL (≈ 40.4 µM) | MIC (Streptococcus pneumoniae [30]): 2 µg/mL (≈ 5.05 µM) | MIC (Streptococcus pneumoniae [31]): > 16 µg/mL | MIC (Streptococcus pneumoniae [32]): 2 µg/mL (≈ 5.05 µM) | MIC (Streptococcus pneumoniae [33]): 4 µg/mL (≈ 10.1 µM) | MIC (Streptococcus pneumoniae [34]): 1 µg/mL (≈ 2.52 µM) | MIC (Streptococcus pneumoniae [35]): 1 µg/mL (≈ 2.52 µM) | MIC (Streptococcus pneumoniae [36]): 2 µg/mL (≈ 5.05 µM) | MIC (Streptococcus pneumoniae [37]): 2 µg/mL (≈ 5.05 µM) | MIC (Streptococcus pneumoniae [38]): 2 µg/mL (≈ 5.05 µM) | MIC (Streptococcus pneumoniae [39]): 0.5 µg/mL (≈ 1.26 µM) | MIC (Streptococcus pneumoniae [40]): 1 µg/mL (≈ 2.52 µM) | MIC (Streptococcus pneumoniae [41]): 0.25 µg/mL (≈ 0.631 µM) | MIC (Streptococcus pneumoniae [42]): 0.5 µg/mL (≈ 1.26 µM) | MIC (Streptococcus pneumoniae [43]): 0.25 µg/mL (≈ 0.631 µM) | MIC (Streptococcus pneumoniae [44]): 0.5 µg/mL (≈ 1.26 µM) | MIC (Streptococcus pneumoniae [45]): 0.125 µg/mL (≈ 0.315 µM) | MIC (Streptococcus pneumoniae [46]): 0.25 µg/mL (≈ 0.631 µM) | MIC (Streptococcus pneumoniae [47]): 0.5 µg/mL (≈ 1.26 µM) | MIC (Streptococcus pneumoniae [48]): 0.25 µg/mL (≈ 0.631 µM) | MIC (Streptococcus pneumoniae [49]): 1 µg/mL (≈ 2.52 µM) | MIC (Streptococcus pneumoniae [50]): 0.25 µg/mL (≈ 0.631 µM) | MIC (Streptococcus pneumoniae [51]): > 16 µg/mL | MIC (Streptococcus pneumoniae [52]): 2 µg/mL (≈ 5.05 µM) | MIC (Streptococcus pneumoniae [53]): 1 µg/mL (≈ 2.52 µM) | MIC (Streptococcus pneumoniae [1]): 0.125 µg/mL (≈ 0.315 µM) | MIC (Streptococcus pneumoniae [2]): 0.5 µg/mL (≈ 1.26 µM) | MIC (Streptococcus pneumoniae [3]): 2 µg/mL (≈ 5.05 µM) | Post Antibiotic Effe (Streptococcus pneumoniae [4]): 1 h | MIC (Streptococcus pneumoniae [5]): 0.5 µg/mL (≈ 1.26 µM) | MIC (Streptococcus pneumoniae [6]): 2 µg/mL (≈ 5.05 µM) | MIC (Streptococcus pneumoniae [7]): 0.5 µg/mL (≈ 1.26 µM) | MIC (Streptococcus pneumoniae [8]): 1 µg/mL (≈ 2.52 µM) | MIC (Streptococcus pneumoniae [9]): 0.125 µg/mL (≈ 0.315 µM) | MIC (Streptococcus pneumoniae [10]): 0.25 µg/mL (≈ 0.631 µM) | MIC (Streptococcus pneumoniae [11]): 0.25 µg/mL (≈ 0.631 µM) | MIC (Streptococcus pneumoniae [12]): 0.5 µg/mL (≈ 1.26 µM) | MIC (Streptococcus pneumoniae [13]): 0.25 µg/mL (≈ 0.631 µM) | MIC (Streptococcus pneumoniae [14]): 0.125 µg/mL (≈ 0.315 µM) | MIC (Streptococcus pneumoniae [15]): 0.125 µg/mL (≈ 0.315 µM) | MIC (Streptococcus pneumoniae [16]): 0.03 µg/mL (≈ 0.0757 µM) | MIC (Streptococcus pneumoniae [17]): 0.5 µg/mL (≈ 1.26 µM) | MIC (Streptococcus pneumoniae [18]): 0.5 µg/mL (≈ 1.26 µM) | MIC (Streptococcus pneumoniae [19]): 0.5 µg/mL (≈ 1.26 µM) | MIC (Streptococcus pneumoniae [20]): 1 µg/mL (≈ 2.52 µM)
